In ChEMBL document CHEMBL1132263, “Synthesis of caged peptides using caged lysine: application to the synthesis of caged AIP, a highly specific inhibitor of calmodulin-dependent protein kinase II” (Bioorg Med Chem Lett, 1999):
Where a SMILES comes first, the peptide text is derived from it. The star is where a group is joined. X1 = O=C(OCc1ccccc1[N+](=O)[O-])*; Cbz = O=C(OCc1ccccc1)*

Molecular target: CaM kinase II (Homo sapiens, UniProt Q13557+Q13555+Q13554+Q9UQM7)
Experiment: Inhibitory activity of compound against CaMKII
Type: protein assay

| SMILES | IC50 |
| --- | --- |
| CC(C)C[C@H](NC(=O)[C@H](C)NC(=O)[C@H](CC(=O)O)NC(=O)[C@@H](NC(=O)[C@H](C)NC(=O)[C@H](CCC(=O)O)NC(=O)[C@H](CCC(N)=O)NC(=O)[C@H](CCCN=C(N)N)NC(=O)[C@H](CCCN=C(N)N)NC(=O)[C@H](CC(C)C)NC(=O)[C@H](C)NC(=O)[C@H](CCCCN)NC(=O)[C@@H](N)CCCCNC(=O)OCc1ccccc1[N+](=O)[O-])C(C)C)C(=O)O (H-K(X1)KALRRQEAVDAL-OH) | 36 nM |
| CC(C)C[C@H](NC(=O)[C@H](C)NC(=O)[C@H](CC(=O)O)NC(=O)[C@@H](NC(=O)[C@H](C)NC(=O)[C@H](CCC(=O)O)NC(=O)[C@H](CCC(N)=O)NC(=O)[C@H](CCCN=C(N)N)NC(=O)[C@H](CCCN=C(N)N)NC(=O)[C@H](CC(C)C)NC(=O)[C@H](C)NC(=O)[C@H](CCCCNC(=O)OCc1ccccc1[N+](=O)[O-])NC(=O)[C@@H](N)CCCCNC(=O)OCc1ccccc1[N+](=O)[O-])C(C)C)C(=O)O (H-K(X1)K(X1)ALRRQEAVDAL-OH) | 1200 nM |
| CC(C)C[C@H](NC(=O)[C@H](C)NC(=O)[C@H](CC(=O)O)NC(=O)[C@@H](NC(=O)[C@H](C)NC(=O)[C@H](CCC(=O)O)NC(=O)[C@H](CCC(N)=O)NC(=O)[C@H](CCCN=C(N)N)NC(=O)[C@H](CCCN=C(N)N)NC(=O)[C@H](CC(C)C)NC(=O)[C@H](C)NC(=O)[C@H](CCCCN)NC(=O)[C@@H](N)CCCCN)C(C)C)C(=O)O (H-KKALRRQEAVDAL-OH) | 32 nM |
| CC(C)C[C@H](NC(=O)[C@H](C)NC(=O)[C@H](CC(=O)O)NC(=O)[C@@H](NC(=O)[C@H](C)NC(=O)[C@H](CCC(=O)O)NC(=O)[C@H](CCC(N)=O)NC(=O)[C@H](CCCN=C(N)N)NC(=O)[C@H](CCCN=C(N)N)NC(=O)[C@H](CC(C)C)NC(=O)[C@H](C)NC(=O)OCc1ccccc1)C(C)C)C(=O)O (Cbz-ALRRQEAVDAL-OH) | 1000 nM |
